According to patent publication US6180388A, “Enzymes and micro organisms with amidase activity which hydrolyze polyamides” (Rhone-Poulenc Fibres et Polymeres S.A., priority 1995, dated 2001):

What was measured:
[1] = tested on: Comamonas acidovorans N 12; assay: Enzymatic hydrolysis of PA 6.6 oligomers, activity of the wild-type microorganism; assay type: cell-based; settings: 28° C., 10.5 mmol/l phosphate buffer pH 7.5
From the text: 2.2 ENZYMATIC HYDROLYSIS--MEASUREMENT OF ACTIVITY OF THE WILD-TYPE MICROORGANISM: […]

[2] = polyamide 66 labeled with carbon 14; cited from earlier work

Molecule: NCCCCCCNC(=O)CCCCC(=O)NCCCCCCNC(=O)CCCCC(=O)O [ABAB]
- hydrolysis ABAB → BAB + A ([1]; substrate 1.4 g/l): 410 mg of BAB/h.g of dry cells

Molecule: O=C(O)CCCCC(=O)NCCCCCCNC(=O)CCCCC(=O)O [ABA]
- hydrolysis ABA → AB + A ([1]; substrate 2.6 g/l): 215 mg of AB/h.g of dry cells

Molecule: NCCCCCCNC(=O)CCCCC(=O)O [AB]
- hydrolysis AB → A + B ([1]; substrate 1.4 g/l): 280 mg of A/h.g of dry cells

Molecule: trypsin [reference compound]
- degradation of polyamide 66 [2]: degrade polyamide 66 slightly

B1: papain: known enzyme of the prior art (protein, UniProt P00784 134-345, looked up)
Papain: IPEYVDWRQKGAVTPVKNQGSCGSCWAFSAVVTIEGIIKIRTGNLNEYSEQELLDCDRRSYGCNGGYPWSALQLVAQYGIHYRNTYPYEGVQRYCRSREKGPYAAKTDGVRQVQPYNEGALLYSIANQPVSVVLEAAGKDFQLYRGGIFVGPCGNKVDHAVAAVGYGPNYILIKNSWGTGWGENGYIRIKRGTGNSYGVCGLYTSSFYPVKN
- degradation of polyamide 66 [2]: degrade polyamide 66 slightly
